PubChem BioAssay (NCI)
Where “and” joins values, the source holds several entries; their conditions need not be identical. Identical values can stand only once.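 Results reflect a 48-hour exposure of cells in 96-well plates to compound at five concentrations. At the GI50, growth is halved. At the TGI there is no net growth.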

Assays:
Test in all cases: NCI tumour cell line growth inhibition, 48 h
[1] = system: HCT-116 colon
[2] = system: IGROV1 ovarian
[3] = system: MOLT-4 leukemia
[4] = system: NCI-H226 lung
[5] = system: OVCAR-4 ovarian
[6] = system: OVCAR-5 ovarian
[7] = system: SK-OV-3 ovarian
[8] = system: SW-620 colon
[9] = system: TK-10 renal
[10] = system: UO-31 renal

| Compound | GI50 [1] | TGI [1] | GI50 [2] | TGI [2] | TGI [3] | GI50 [4] | TGI [4] | TGI [5] | GI50 [6] | TGI [6] | GI50 [7] | TGI [7] | TGI [8] | GI50 [9] | TGI [9] | GI50 [10] | TGI [10] | GI50 [3] | GI50 [5] | GI50 [8] |
| --- | --- | --- | --- | --- | --- | --- | --- | --- | --- | --- | --- | --- | --- | --- | --- | --- | --- | --- | --- | --- |
| C[n+]1c2ccccc2cc2c(CNC(CCCN=C(N)N)C(=O)O)cccc21 (configuration not stated) | 0.343 µM | 1.26 µM and 1.07 µM | 4.09 µM | 19.1 µM | 0.852 µM | 7.76 µM | 7.63 µM and 35.8 µM | 23.9 µM | 14.4 µM | 27.4 µM | 6.15 µM | 17.9 µM | 1.78 µM | 0.967 µM | 2.07 µM and 2.35 µM | 10.2 µM | 2.43 µM and 22 µM |  |  |  |
| O=S1(=O)NCCCN1CCNc1nccc(-c2c(-c3cccc(O)c3)nc3sccn23)n1 | 5.26 µM | 38.4 µM | 11.3 µM | 64.4 µM | > 77.6 µM | 18.9 µM | 73.9 µM | > 96.1 µM | 49.8 µM | > 100 µM | 5.93 µM | 63.8 µM | > 100 µM | 33.6 µM | > 100 µM | 37 µM | > 96.6 µM | 22.9 µM | 17.5 µM | 33 µM |
| CCN(CC)CCNC(=O)c1c(C)[nH]c(/C=C2\C(=O)Nc3ccc(F)cc32)c1C | 1.32 µM and 1.38 µM and 1.16 µM | 5.25 µM and 3.85 µM and 3.09 µM | 1.48 µM and 2.63 µM and 2.05 µM | > 10 µM and 20 µM and 15.9 µM | > 10 µM and 20 µM and 9.05 µM | 5.22 µM and 5.72 µM and 8.46 µM | > 10 µM and 20 µM and 23.4 µM | > 10 µM and 9.23 µM and 15 µM | 4.1 µM and 2.35 µM and 3.57 µM | > 10 µM and 8.72 µM and 18.1 µM | 2.44 µM and 2.26 µM and 3.51 µM | > 10 µM and 5.43 µM and 19.6 µM | 7.67 µM and 5.22 µM and 4.22 µM | 2.78 µM and 2.01 µM and 5.52 µM | > 10 µM and 5.81 µM and 20.9 µM | 0.629 µM and 1.26 µM and 1.29 µM | > 10 µM and 4.59 µM and 8.07 µM | 1.1 µM and 2.73 µM and 1.7 µM | > 10 µM and 2.41 µM and 2.76 µM | 1.76 µM and 1.95 µM and 1.4 µM |
| CC(=O)[CH-]C(C)=O.[CH2-]C.[CH2-]C.[Tl+3] | > 100 µM | > 100 µM | > 100 µM | > 100 µM | > 100 µM | > 100 µM | > 100 µM | > 100 µM | > 100 µM | > 100 µM | > 100 µM | > 100 µM | > 100 µM | > 100 µM | > 100 µM | > 100 µM | > 100 µM | > 100 µM | > 100 µM | > 100 µM |
| Cn1c(/C(C#N)=C/c2ccc3ccccc3c2)cc2ccccc21 | 0.0774 µM | > 100 µM | 0.225 µM | > 100 µM | > 100 µM | 0.662 µM | > 100 µM | > 100 µM | 0.411 µM | > 100 µM | > 100 µM | > 100 µM | > 100 µM | > 100 µM | > 100 µM | 0.157 µM | > 100 µM | 0.468 µM | > 100 µM | 0.0935 µM |
| C[C@H](Cn1ncnn1)Nc1ncc2cc(Oc3ccc(F)cc3F)c(=O)n(C)c2n1 | > 25 µM | > 25 µM | > 25 µM | > 25 µM | > 25 µM | > 25 µM | > 25 µM | > 25 µM | > 25 µM | > 25 µM | > 25 µM | > 25 µM | > 25 µM | > 25 µM | > 25 µM | > 25 µM | > 25 µM | > 25 µM | > 25 µM | > 25 µM |
| C#CCC(N)(CO)C(=O)O (configuration not stated) |  | > 100 µM |  | > 100 µM | > 100 µM |  | > 100 µM | > 100 µM |  | > 100 µM |  | > 100 µM | > 100 µM |  | > 100 µM |  | > 100 µM |  |  |  |
| O=S(=O)(CCOCc1ccc(-c2ccc3ncnc(Nc4ccc(OCc5cccc(F)c5)c(Cl)c4)c3c2)o1)c1ccccc1 | > 25 µM | > 25 µM | > 25 µM | > 25 µM | > 25 µM | > 25 µM | > 25 µM | > 25 µM | > 25 µM | > 25 µM | 0.143 µM | > 25 µM | > 25 µM | 1.17 µM | > 25 µM | > 7.54 µM | > 25 µM | > 25 µM | > 25 µM | > 25 µM |
| CC(=O)[O-].CC(=O)[O-].CC(=O)[O-].CC(=O)[O-].[Mo+2].[Mo+2] | > 100 µM | > 100 µM | > 100 µM | > 100 µM | > 100 µM | > 100 µM | > 100 µM | > 100 µM | > 100 µM | > 100 µM | > 100 µM | > 100 µM | > 100 µM | > 100 µM | > 100 µM | > 100 µM | > 100 µM | > 100 µM | > 100 µM | > 100 µM |
| NC(=O)/C=C/C(=O)O |  | > 5000 µM |  | > 5000 µM | > 5000 µM |  | > 5000 µM | > 5000 µM |  | > 5000 µM |  | > 5000 µM | > 5000 µM |  | > 5000 µM |  | > 5000 µM |  |  |  |
| CC1(C)OC2COC3(CNO)OC(C)(C)OC3C2O1 (configuration not stated) |  | > 100 µM |  | > 100 µM | > 100 µM |  | > 100 µM | > 100 µM |  | > 100 µM |  | > 100 µM | > 100 µM |  | > 100 µM |  | > 100 µM |  |  |  |
| CCC(=C(c1ccc(OCCCN(C)C)cc1)c1ccc(OCCCN(C)C)cc1)c1ccc(Cl)cc1 | 0.447 µM | 1.15 µM | 0.429 µM | 1.15 µM | 0.948 µM | 2.65 µM | 5.57 µM | 2.41 µM | 2.48 µM | 4.8 µM | 2.81 µM | 5.36 µM | 0.648 µM | 3.26 µM | 6.01 µM | 0.269 µM | 0.58 µM | 0.379 µM | 0.922 µM | 0.314 µM |
| COCCOCCOCc1n(Cc2ccc3ccccc3n2)c2ccccc2[n+]1Cc1ccc2ccccc2c1 | 0.402 µM | 2.06 µM | 0.351 µM | 1.66 µM | 2.52 µM | 0.875 µM | 4.83 µM | 7.42 µM | 0.557 µM | 7.43 µM | 0.501 µM | 2.68 µM | 5.37 µM | 1.04 µM | 2.42 µM | 2.29 µM | 11.2 µM | 0.47 µM | 0.385 µM | 0.769 µM |
| O=C/C(=C(/Cl)c1ccc(O)cc1)c1ccccc1 |  | 37.2 µM |  | 66.6 µM | > 69.4 µM |  | > 100 µM | > 54 µM |  | > 100 µM |  | 85.8 µM | > 68 µM |  | > 56 µM |  | 61.8 µM |  |  |  |
| O=C(O)CCC(NC(=S)S)C(=O)O.[Na+].[Zn+2] (configuration not stated) | > 50 µM | > 50 µM | > 50 µM | > 50 µM | > 50 µM | > 50 µM | > 50 µM | > 50 µM | > 50 µM | > 50 µM | > 50 µM | > 50 µM | > 50 µM | > 50 µM | > 50 µM | > 50 µM | > 50 µM | > 50 µM | > 50 µM | > 50 µM |
